This is an account of results in article PMC9775177, “NLRP3-Inflammasome Inhibition with IZD334 Does Not Reduce Cardiac Damage in a Pig Model of Myocardial Infarction” (Biomedicines, 2022).

In this test the test system is pig model of myocardial infarction. Nature of the test: In vivo MI study: regional cardiac function and dobutamine echocardiography. On the set-up: species or system pigs. The settings on record: high-dose group (10 mg/kg), 7 days follow-up. An excerpt: Oral treatment was continued for six days. […] Animals were sacrificed by exsanguination under anesthesia.
Images were made using a X7-2T transducer on an iE33 ultrasound device (Philips, Eindhoven, The Netherlands). The pig was placed in the right lateral position, and the echo probe was inserted 50–60 cm into the esophagus. We used the 3D full volume option and temporarily interrupted mechanical ventilation to assess LV geometry and function. On day 7 we additionally obtained dobutamine stress-echocardiography to assess regional cardiac function. Images were analyzed in a blinded fashion with validated software, QLab 10.7 (Philips, Eindhoven, The Netherlands).

Consider `CCN1CCC(S(=O)(=O)[N-]C(=O)Nc2c3c(cc4c2CCC4)CCC3)CC1.[K+]` [IZD334], for which, for the setting “data not shown”, the “Fractional area changes at mitral, mid-ventricular, and apical levels versus placebo” value is given as “equal between groups”. The “Septal and inferolateral systolic wall thickness and thickening versus placebo” value (mid-ventricular level) was “did not differ between these groups”.
